In brackets after ≈: the same amount, converted by molar mass. Where two headings read alike, the source gives them in different places. Blank lines part the entries; values can stand above or below the molecule they belong to. Starred links: 1 amine or outer side, 2 acyl side, 3 side chain; linkers in the order of their positions; H or OH if unused. Positions of bridges follow the written chain, without caps; N, C: chain ends. Non-standard residues stand in square brackets, D forms with d. Residues, ends and D or L forms follow the SMILES beside them. Chains are numbered I, II in the order given. Actinocin(9to1) = Cc1c2oc3c(C)ccc(C(=O)[*:1])c3nc-2c(C(=O)[*:2])c(N)c1=O; NMeV = CN[C@H](C(=O)O)C(C)C; Sar = CNCC(=O)O
Experiments:
mushroom tyrosinase [1] = target: T1, mushroom tyrosinase (Agaricus bisporus, UniProt C7FF04); experiment: Tyrosinase enzyme kinetics: change in L-dopa kinetics, type of inhibition; assay type: biochemical; settings: for VMAX, Michaelis-Menten plot data of the inhibitors (Figure S 3): L-dopa with inhibitor; for Type of inhibition: enzyme kinetic studies; for Change in L-dopa kinetics, Vmax: maximum enzyme velocity
T1 construct: purchased Sigma-Aldrich Co. LLC, St. Louis, MO, USA
T1 sequence (C7FF04 1-392 limits assumed): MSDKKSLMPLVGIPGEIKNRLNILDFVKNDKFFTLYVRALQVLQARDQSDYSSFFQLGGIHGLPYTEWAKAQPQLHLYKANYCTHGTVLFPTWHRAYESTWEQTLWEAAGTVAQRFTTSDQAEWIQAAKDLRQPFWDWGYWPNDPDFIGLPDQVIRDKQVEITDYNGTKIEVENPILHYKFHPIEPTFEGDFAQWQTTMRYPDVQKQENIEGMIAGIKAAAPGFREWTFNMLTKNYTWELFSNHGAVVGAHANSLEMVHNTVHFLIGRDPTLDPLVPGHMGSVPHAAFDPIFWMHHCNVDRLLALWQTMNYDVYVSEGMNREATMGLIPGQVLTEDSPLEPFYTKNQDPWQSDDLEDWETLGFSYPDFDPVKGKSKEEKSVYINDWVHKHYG

mushroom tyrosinase [2] = target: T1, mushroom tyrosinase; experiment: Diphenolase tyrosinase assay (enzymatic rate, L-dopa as substrate); assay type: biochemical; settings: for Tyrosinase activity at 200 µg/mL (fold increase): rate over 30 min at 37 °C versus vehicle control; for Tyrosinase stimulation, fold increase: enzyme rate of the sample divided by enzyme rate of the vehicle control
[3] = tested on: human melanoma cells (UCT-Mel1); experiment: Antiproliferative assay (Presto blue, 72 h); assay type: cell-based; settings: for IC50 / EC50: Homo sapiens; for EC50 / HillSlope, sigmoidal dose-response best-fit (Table S 10) / LogEC50, sigmoidal dose-response best-fit (Table S 10): variable slope; for EC50: bottom 0, top 100, read-out: EC50, sigmoidal dose-response best-fit (Table S 10)
[4] = tested on: human melanocytes (UCT-Mel-1); experiment: Masson Fontana assay (melanin produced); assay type: cell-based; settings: for Increase in melanin produced: 265 µM (aspalathin 119.82 µg/mL, catechin 76.92 µg/mL); for Mean Diff., Negative vs sample, melanin produced (Table S 11): Dunnett's multiple comparison versus untreated melanocytes
Experimental: The cells were cultured as previously described. The silver nitrate solution was prepared, as described by Kwon-Chung et al.[34]. The cells were fixed and treated with the AgNO3 working solution for 40 min at 56 °C (in the dark). Following incubation, the cells were treated with sodium thiosulphate (52.63 mg/mL) for 1 min and rinsed with water. The cells were counterstained using haematoxylin. The washed cells were dehydrated and fixed on microscope slides. Light microscopy images were taken using a Zeiss Primo Vert light microscope and analysed with ImageJ[34].

tyrosinase [5] = target: T2, tyrosinase (Agaricus bisporus, UniProt C7FF04); experiment: Tyrosinase enzyme kinetics in the absence of the substrate (subversive substrate properties); assay type: biochemical, mushroom; settings: for Vmax (substrate properties): Table 3
T2 construct: purchased Sigma-Aldrich Co. LLC, St. Louis, MO, USA
T2 sequence (C7FF04 1-392 limits assumed): as above

tyrosinase [6] = settings: cited from earlier work; for IC50: read-out: Antityrosinase IC50, previously reported
[7] = value in brackets, read-out: Antiproliferative IC50 (converted)
[8] = compound as substrate, absence of L-dopa
[9] = Tyrosinase stimulation EC50 ± SD, relative EC50, 50% of maximal response
[10] = Tyrosinase stimulation EC50 ± SD, relative EC50, value in brackets

VMAX, Michaelis-Menten plot data of the inhibitors (Figure S 3) (mushroom tyrosinase [1]): 20.56 ± 1.72 µmol/min | Type of inhibition (mushroom tyrosinase [1]): non-competitive inhibition | Tyrosinase inhibitory activity in words (mushroom tyrosinase [2]): Moderate inhibitory activity | IC50 (mushroom tyrosinase [2]; read-out: Tyrosinase inhibition IC50 ± SD): 534.9 ± 5.09 µM
SMILES: CCCOC(=O)c1cc(O)c(O)c(O)c1 [n-Propyl gallate (10), n-propyl gallate]

IC50 ([3]; concentration where 50% of the cells are viable, 72 h, read-out: Antiproliferative IC50 ± standard deviation): 166.3 ± 1.14 µg/mL | IC50 [3, 7]: 573 µM | EC50 [3]: 166 µg/mL (≈ 573 µM) | Substrate catalytic efficiency, times higher than native substrate L-dopa (tyrosinase [5]): 4 times | VMAX, subversive substrates (Figure S 5) (tyrosinase [5]; absence of the substrate L-dopa): 382.4 ± 7.03 µmol/min | Vmax (absence of the substrate) (tyrosinase [5]; compound as substrate): 382.4 ± 7.0 µM/min | kcat (catalytic constant) (tyrosinase [5]; compound as substrate): 229.7 s⁻¹ | Km (tyrosinase [5]; [8]): 471 µM | Vmax (substrate properties) (tyrosinase [5]; [8]): 382.4 (± 7.0) mOD/min | Change in L-dopa kinetics, Vmax (mushroom tyrosinase [1]): 382.40 ± 7.03 µM/min | Tyrosinase activity at 200 µg/mL (fold increase) (mushroom tyrosinase [2]): 0.41 fold increase | Tyrosinase stimulation, fold increase (mushroom tyrosinase [2]): 0.40 fold | Tyrosinase stimulation, fold increase (mushroom tyrosinase [2]; listed as catechin (3)): 0.4 fold | EC50 (mushroom tyrosinase [2]; relative EC50, 50% of maximal response, read-out: Tyrosinase stimulation EC50 ± SD (converted)): 494 µM | EC50 (mushroom tyrosinase [2]; relative EC50, value in brackets, read-out: Tyrosinase stimulation EC50 ± SD (converted)): 494 µM
SMILES: Oc1cc(O)c2c(c1)O[C@H](c1ccc(O)c(O)c1)[C@@H](O)C2 [Catechin (3), (+)-catechin]
HillSlope, sigmoidal dose-response best-fit (Table S 10) [3]: -3.06 | LogEC50, sigmoidal dose-response best-fit (Table S 10) [3]: 2.22 | Masson Fontana % increase in melanin produced ([4]; 100 µg/mL, versus untreated cells): 5.72% | Increase in melanin produced ([4]; listed as catechin): 4.5% | Increase in melanin produced ([4]; listed as catechin (3)): approximately 4.5% | Mean Diff., Negative vs sample, melanin produced (Table S 11) [4]: -15.08

SMILES: O=C(O)/C=C/c1ccc(O)c(O)c1 [Caffeic acid (2), caffeic acid]
Vmax (substrate properties) (tyrosinase [5]; [8]): 120.9 (± 15.5) mOD/min | EC50 (mushroom tyrosinase [2]; [9]): 228 µM | EC50 (mushroom tyrosinase [2]; [10]): 228 µM

SMILES: Oc1ccc(O)cc1 [hydroquinone]
IC50 (tyrosinase [6]): 19.8 ± 1.05 µM

SMILES: Cc1c2oc3c(C)ccc(C(=O)N[C@@H]4C(=O)N[C@H](C(C)C)C(=O)N5CCC[C@H]5C(=O)N(C)CC(=O)N(C)[C@@H](C(C)C)C(=O)O[C@@H]4C)c3nc-2c(C(=O)N[C@@H]2C(=O)N[C@H](C(C)C)C(=O)N3CCC[C@H]3C(=O)N(C)CC(=O)N(C)[C@@H](C(C)C)C(=O)O[C@@H]2C)c(N)c1=O [Actinomycin D, reference compound] (I: T[dV]P[Sar][NMeV] / II: T[dV]P[Sar][NMeV]; ester I:1-I:C, II:1-II:C; linker I:N-II:N via Actinocin(9to1))
IC50 ([3]; 72 h, read-out: Antiproliferative IC50 ± standard deviation): 0.039 ± 0.002 µg/mL

SMILES: O=C(/C=C/c1ccc(O)c(O)c1)O[C@H](Cc1ccc(O)c(O)c1)C(=O)O [Rosmarinic acid (12), rosmarinic acid]
VMAX, Michaelis-Menten plot data of the inhibitors (Figure S 3) (mushroom tyrosinase [1]): 19.72 ± 1.01 µmol/min | Type of inhibition (mushroom tyrosinase [1]): competitive inhibition | IC50 (mushroom tyrosinase [2]): 7.33 ± 3.33 µM | IC50 (tyrosinase [6]): 4 µM

SMILES: O=c1cc(-c2ccc(O)cc2)oc2c([C@@H]3O[C@H](CO)[C@@H](O)[C@H](O)[C@H]3O)c(O)cc(O)c12 [Vitexin (15), vitexin]
IC50 (mushroom tyrosinase [2]): > 694 µM

SMILES: O=C(O)/C=C/c1ccccc1 [Cinnamic acid (4), cinnamic acid]
VMAX, Michaelis-Menten plot data of the inhibitors (Figure S 3) (mushroom tyrosinase [1]): 16.82 ± 0.37 µmol/min | Type of inhibition (mushroom tyrosinase [1]): competitive inhibition | Change in L-dopa kinetics, Vmax (mushroom tyrosinase [1]): 16.82 ± 0.37 µM/min | IC50 (mushroom tyrosinase [2]): 943.6 ± 8.1 µM | Tyrosinase inhibitory activity in words (mushroom tyrosinase [2]): Moderate inhibitory activity

SMILES: O=C(O)c1ccc(O)cc1 [4-Hydroxybenzoic acid (6), 4-hydroxy benzoic acid]
VMAX, Michaelis-Menten plot data of the inhibitors (Figure S 3) (mushroom tyrosinase [1]): 35.00 ± 1.84 µmol/min | Change in L-dopa kinetics, Vmax (mushroom tyrosinase [1]): 35.00 ± 1.84 µM/min | IC50 (mushroom tyrosinase [2]): 1868 ± 9.34 µM

Vmax (substrate properties) (tyrosinase [5]; [8]): 22.8 (± 1.1) mOD/min | Change in L-dopa kinetics, Vmax (mushroom tyrosinase [1]): 22.82 ± 1.07 µM/min
SMILES: N[C@@H](Cc1ccc(O)c(O)c1)C(=O)O [L-dopa, reference compound]

SMILES: COc1cc(/C=C/C(=O)O)ccc1O [Ferulic acid (5), ferulic acid]
IC50 (mushroom tyrosinase [2]): > 1500 µM

SMILES: Oc1ccc(/C=C/c2cc(O)cc(O)c2)cc1 [resveratrol]
Type of tyrosinase inhibition, well-known inhibitors (tyrosinase [6]): non-competitive | IC50 (tyrosinase [6]): 27.7 ± 1.15 µM

SMILES: O=c1c(O[C@@H]2O[C@H](CO)[C@@H](O)[C@H](O)[C@H]2O)c(-c2ccc(O)c(O)c2)oc2cc(O)cc(O)c12 [Isoquercitrin (7), isoquercitrin]
Type of inhibition (mushroom tyrosinase [1]): competitive inhibition | IC50 (mushroom tyrosinase [2]): > 646 µM

SMILES: O=C(O)/C=C/c1ccc(O)cc1 [p-Coumaric acid (9), p-coumaric acid]
VMAX, Michaelis-Menten plot data of the inhibitors (Figure S 3) (mushroom tyrosinase [1]): 17.71 ± 0.66 µmol/min | Type of inhibition (mushroom tyrosinase [1]): competitive inhibition | Change in L-dopa kinetics, Vmax (mushroom tyrosinase [1]): 17.71 ± 0.66 µM/min | IC50 (mushroom tyrosinase [2]): 153 ± 7.01 µM | Tyrosinase inhibitory activity in words (mushroom tyrosinase [2]): Moderate inhibitory activity

SMILES: COc1cc(C(=O)O)cc(OC)c1O [Syringic acid (13), syringic acid]
IC50 (mushroom tyrosinase [2]): > 1510 µM

SMILES: O=C(CCc1ccc(O)c(O)c1)c1c(O)cc(O)c(C2OC(CO)C(O)C(O)C2O)c1O (stereo not drawn) [Aspalathin (1), aspalathin]
IC50 ([3]; 72 h, concentration where 50% of the cells are viable, 72 h, read-out: Antiproliferative IC50 ± standard deviation): > 200 µg/mL | IC50 [3, 7]: 482 µM | EC50 [3]: 218 µg/mL (≈ 481 µM) | Antiproliferative IC50 ± standard deviation ([3]; concentration where 50% of the cells are viable, 72 h): 217.75 ± 1.23 µg/mL | HillSlope, sigmoidal dose-response best-fit (Table S 10) [3]: -5.86 | LogEC50, sigmoidal dose-response best-fit (Table S 10) [3]: 2.34 | Increase in melanin produced ([4]; listed as Aspalathin): approximately 4.5% | Increase in melanin produced ([4]; listed as aspalathin): 4.5% | Mean Diff., Negative vs sample, melanin produced (Table S 11) [4]: -8.382 | Substrate catalytic efficiency, times lower than native substrate (tyrosinase [5]): 3–4 times | Vmax (substrate properties) (tyrosinase [5]; [8]): 68.7 (± 3.5) mOD/min | Change in L-dopa kinetics, Vmax (mushroom tyrosinase [1]): 68.73 ± 3.47 µM/min | Tyrosinase activity at 200 µg/mL (fold increase) (mushroom tyrosinase [2]): 1.11 fold increase | EC50 (mushroom tyrosinase [2]; [9]): 265 µM | EC50 (mushroom tyrosinase [2]; [10]): 265 µM | Tyrosinase stimulation, fold increase (mushroom tyrosinase [2]): 1.10 fold
